Assay results as given in article PMC12473425, “Development and Evaluation of a Modified Fixed-Dose Combination Antihypertensive Tablet Containing S-Amlodipine Besylate: A Bioequivalence and Stability Study” (Pharmaceutics, 2025).
Each block holds one compound with its values, some of them ahead of it.

Key:
[1] = Compatibility study of each API alone or 1:1 (w/w) with excipients under stressed conditions, impurities by HPLC; assay type: physicochemical; conditions: 60 ± 2 °C/80 ± 5% RH
Description: We evaluated the compatibility between APIs and excipients, for which each API in […]® tablets was individually mixed in a 1:1 (w/w) ratio with excipients used in the formulation, as well as with commonly used tablet excipients selected based on their functional roles (e.g., diluents, binders, disintegrants, lubricants, etc.). […] The compatibility study was conducted in a temperature and humidity chamber (Sunil Eyela Co., Seongnam, Korea). Samples were withdrawn at predetermined intervals and analyzed for impurities (%). A HPLC system (Agilent Technologies, Inc. CA, USA) was used for the quantitative analysis of impurities. The column used was Symmetry C8 (100 mm × 4.6 mm, 3.5 μm, Waters Corp., Milford, CT, USA). Mobile phase A consisted of a mixture of phosphate buffer (pH 2.8) and acetonitrile at a ratio of […] prepared in a 1000 mL volumetric flask. The buffer was prepared by adjusting a 10% phosphoric acid solution to pH 2.8, filtered through a 0.45 μm membrane filter (Millipore; Billerica, MA, USA), and degassed before use. Mobile phase B consisted of a phosphate buffer (pH 2.8) and acetonitrile at a ratio of 600:1400 (v/v), which was similarly prepared and degassed before use. The mobile phases were delivered at a flow rate of 1.0 mL/min, the column temperature was maintained at 35 °C, and detection was performed at a wavelength of 250 nm.

[2] = parameters: method as in PMID 21966165; conditions: low solubility and high permeability; cited from earlier work
[3] = hydrochlorothiazide compatibility, 1w
[4] = hydrochlorothiazide compatibility, 2w
[5] = hydrochlorothiazide compatibility, 4w
[6] = hydrochlorothiazide compatibility, Initial
[7] = olmesartan medoxomil compatibility, 1w
[8] = olmesartan medoxomil compatibility, 2w
[9] = olmesartan medoxomil compatibility, 4w
[10] = olmesartan medoxomil compatibility, Initial
[11] = S-amlodipine besylate compatibility, 1w
[12] = S-amlodipine besylate compatibility, 2w
[13] = S-amlodipine besylate compatibility, 4w

Benzothiadiazine Related Compound A [1, 3]: <LOQ | Total Impurity [1, 3]: 0.08% | Unknown Impurity [1, 3]: 0.08% | Benzothiadiazine Related Compound A [1, 4]: <LOQ | Total Impurity [1, 4]: 0.08% | Unknown Impurity [1, 4]: 0.08% | Benzothiadiazine Related Compound A [1, 5]: <LOQ | Total Impurity [1, 5]: 0.08% | Unknown Impurity [1, 5]: 0.08% | Benzothiadiazine Related Compound A [1, 6]: <LOQ | Total Impurity [1, 6]: 0.10% | Unknown Impurity [1, 6]: 0.10%
SMILES: NS(=O)(=O)c1cc2c(cc1Cl)NCNS2(=O)=O [Hydrochlorothiazide]

RNH-8276 [1, 7]: <LOQ | Total Impurity [1, 7]: <LOQ | Unknown Impurity [1, 7]: <LOQ | RNH-8276 [1, 8]: <LOQ | Total Impurity [1, 8]: <LOQ | Unknown Impurity [1, 8]: <LOQ | RNH-8276 [1, 9]: <LOQ | Total Impurity [1, 9]: 0.05% | Unknown Impurity [1, 9]: 0.05% | Total Impurity [1, 10]: <LOQ | Unknown Impurity [1, 10]: <LOQ
SMILES: CCCc1nc(C(C)(C)O)c(C(=O)OCc2oc(=O)oc2C)n1Cc1ccc(-c2ccccc2-c2nnn[nH]2)cc1 [Olmesartan medoxomil]
Biopharmaceutics Classification System (BCS) class [2]: Class II

Amlodipine Related Compound A [1, 11]: <LOQ | Total Impurity [1, 11]: <LOQ | Unknown Impurity [1, 11]: <LOQ | Amlodipine Related Compound A [1, 12]: <LOQ | Total Impurity [1, 12]: <LOQ | Unknown Impurity [1, 12]: <LOQ | Amlodipine Related Compound A [1, 13]: 0.06% | Total Impurity [1, 13]: 0.30% | Unknown Impurity [1, 13]: 0.16%
SMILES: CCOC(=O)C1=C(COCCN)NC(C)=C(C(=O)OC)[C@@H]1c1ccccc1Cl.O.O.O=S(=O)(O)c1ccccc1 [S-amlodipine besylate, S-amlodipine besylate dihydrate]
